Source: patent publication US6869589B1, “Cryptate compounds and methods for diagnosis and therapy” (Australian Nuclear Science & Technology Organization, priority 1999, dated 2005)

Experiment: Biodistribution of ^64Cu complexes in balb/c mice
Protocol: The biodistribution of the ^64Cu complexes of compounds (1), (3) and (4) (0.10 ml intravenous injection) were evaluated in balb/c mice (5 animals per time point) at 3, 5, 10, 15, 20 and 30 minute time intervals. Biodistribution studies were performed in duplicate.

% injected dose per gram (BLADDER, 3 MIN): 24.36 % INJECTED DOSE PER GRAM | % injected dose per gram (BLADDER, 5 MIN): 31.12 % INJECTED DOSE PER GRAM | % injected dose per gram (BLADDER, 10 MIN): 27.75 % INJECTED DOSE PER GRAM | % injected dose per gram (BLADDER, 15 MIN): 15.17 % INJECTED DOSE PER GRAM | % injected dose per gram (BLADDER, 20 MIN): 23.29 % INJECTED DOSE PER GRAM | % injected dose per gram (BLADDER, 30 MIN): 122.93 % INJECTED DOSE PER GRAM | % injected dose per gram (BLOOD, 3 MIN): 8.68 % INJECTED DOSE PER GRAM | % injected dose per gram (BLOOD, 5 MIN): 6.32 % INJECTED DOSE PER GRAM | % injected dose per gram (BLOOD, 10 MIN): 5.45 % INJECTED DOSE PER GRAM | % injected dose per gram (BLOOD, 15 MIN): 2.48 % INJECTED DOSE PER GRAM | % injected dose per gram (BLOOD, 20 MIN): 2.63 % INJECTED DOSE PER GRAM | % injected dose per gram (BLOOD, 30 MIN): 1.14 % INJECTED DOSE PER GRAM | % injected dose per gram (BONE, 3 MIN): 2.25 % INJECTED DOSE PER GRAM | % injected dose per gram (BONE, 5 MIN): 1.87 % INJECTED DOSE PER GRAM | % injected dose per gram (BONE, 10 MIN): 1.79 % INJECTED DOSE PER GRAM | % injected dose per gram (BONE, 15 MIN): 1.23 % INJECTED DOSE PER GRAM | % injected dose per gram (BONE, 20 MIN): 1.25 % INJECTED DOSE PER GRAM | % injected dose per gram (BONE, 30 MIN): 0.78 % INJECTED DOSE PER GRAM | % injected dose per gram (GIT, 3 MIN): 2.75 % INJECTED DOSE PER GRAM | % injected dose per gram (GIT, 5 MIN): 2.21 % INJECTED DOSE PER GRAM | % injected dose per gram (GIT, 10 MIN): 1.85 % INJECTED DOSE PER GRAM | % injected dose per gram (GIT, 15 MIN): 1.11 % INJECTED DOSE PER GRAM | % injected dose per gram (GIT, 20 MIN): 1.05 % INJECTED DOSE PER GRAM | % injected dose per gram (GIT, 30 MIN): 1.16 % INJECTED DOSE PER GRAM | % injected dose per gram (HEART, 3 MIN): 3.11 % INJECTED DOSE PER GRAM | % injected dose per gram (HEART, 5 MIN): 2.25 % INJECTED DOSE PER GRAM | % injected dose per gram (HEART, 10 MIN): 2.27 % INJECTED DOSE PER GRAM | % injected dose per gram (HEART, 15 MIN): 0.89 % INJECTED DOSE PER GRAM | % injected dose per gram (HEART, 20 MIN): 1.23 % INJECTED DOSE PER GRAM | % injected dose per gram (HEART, 30 MIN): 0.40 % INJECTED DOSE PER GRAM | % injected dose per gram (KIDNEY, 3 MIN): 23.18 % INJECTED DOSE PER GRAM | % injected dose per gram (KIDNEY, 5 MIN): 11.50 % INJECTED DOSE PER GRAM | % injected dose per gram (KIDNEY, 10 MIN): 12.80 % INJECTED DOSE PER GRAM | % injected dose per gram (KIDNEY, 15 MIN): 6.77 % INJECTED DOSE PER GRAM | % injected dose per gram (KIDNEY, 20 MIN): 7.77 % INJECTED DOSE PER GRAM | % injected dose per gram (KIDNEY, 30 MIN): 4.95 % INJECTED DOSE PER GRAM | % injected dose per gram (LIVER, 3 MIN): 2.29 % INJECTED DOSE PER GRAM | % injected dose per gram (LIVER, 5 MIN): 1.50 % INJECTED DOSE PER GRAM | % injected dose per gram (LIVER, 10 MIN): 1.42 % INJECTED DOSE PER GRAM | % injected dose per gram (LIVER, 15 MIN): 0.82 % INJECTED DOSE PER GRAM | % injected dose per gram (LIVER, 20 MIN): 0.69 % INJECTED DOSE PER GRAM | % injected dose per gram (LIVER, 30 MIN): 0.50 % INJECTED DOSE PER GRAM | % injected dose per gram (LUNGS, 3 MIN): 6.51 % INJECTED DOSE PER GRAM | % injected dose per gram (LUNGS, 5 MIN): 4.45 % INJECTED DOSE PER GRAM | % injected dose per gram (LUNGS, 10 MIN): 3.91 % INJECTED DOSE PER GRAM | % injected dose per gram (LUNGS, 15 MIN): 2.06 % INJECTED DOSE PER GRAM | % injected dose per gram (LUNGS, 20 MIN): 2.73 % INJECTED DOSE PER GRAM | % injected dose per gram (LUNGS, 30 MIN): 0.85 % INJECTED DOSE PER GRAM | % injected dose per gram (MUSCLE, 3 MIN): 1.81 % INJECTED DOSE PER GRAM | % injected dose per gram (MUSCLE, 5 MIN): 1.81 % INJECTED DOSE PER GRAM | % injected dose per gram (MUSCLE, 10 MIN): 2.39 % INJECTED DOSE PER GRAM | % injected dose per gram (MUSCLE, 15 MIN): 2.28 % INJECTED DOSE PER GRAM | % injected dose per gram (MUSCLE, 20 MIN): 1.17 % INJECTED DOSE PER GRAM | % injected dose per gram (MUSCLE, 30 MIN): 1.33 % INJECTED DOSE PER GRAM | % injected dose per gram (SKIN, 3 MIN): 5.82 % INJECTED DOSE PER GRAM | % injected dose per gram (SKIN, 5 MIN): 5.59 % INJECTED DOSE PER GRAM | % injected dose per gram (SKIN, 10 MIN): 5.48 % INJECTED DOSE PER GRAM | % injected dose per gram (SKIN, 15 MIN): 2.61 % INJECTED DOSE PER GRAM | % injected dose per gram (SKIN, 20 MIN): 2.96 % INJECTED DOSE PER GRAM | % injected dose per gram (SKIN, 30 MIN): 1.63 % INJECTED DOSE PER GRAM | % injected dose per gram (SPLEEN, 3 MIN): 2.09 % INJECTED DOSE PER GRAM | % injected dose per gram (SPLEEN, 5 MIN): 1.48 % INJECTED DOSE PER GRAM | % injected dose per gram (SPLEEN, 10 MIN): 1.54 % INJECTED DOSE PER GRAM | % injected dose per gram (SPLEEN, 15 MIN): 1.44 % INJECTED DOSE PER GRAM | % injected dose per gram (SPLEEN, 20 MIN): 0.69 % INJECTED DOSE PER GRAM | % injected dose per gram (SPLEEN, 30 MIN): 0.52 % INJECTED DOSE PER GRAM | % injected dose per gram (STOMACH, 3 MIN): 3.50 % INJECTED DOSE PER GRAM | % injected dose per gram (STOMACH, 5 MIN): 2.73 % INJECTED DOSE PER GRAM | % injected dose per gram (STOMACH, 10 MIN): 2.08 % INJECTED DOSE PER GRAM | % injected dose per gram (STOMACH, 15 MIN): 1.50 % INJECTED DOSE PER GRAM | % injected dose per gram (STOMACH, 20 MIN): 1.16 % INJECTED DOSE PER GRAM | % injected dose per gram (STOMACH, 30 MIN): 0.74 % INJECTED DOSE PER GRAM
Compound: NC12CNCCNCC(N)(CNCCNC1)CNCCNC2.[64Cu+2] [^64Cu-labelled compound (1)]
